The values that follow come from US9497963B2, “Methods and compositions for control of gypsy moth, Lymantria dispar” (Simon Fraser University, priority 2008, dated 2016).

One test concerns male gypsy moth antenna. In words: Coupled gas chromatographic-electroantennographic detection (GC-EAD). The arrangement: species or system Lymantria dispar. The settings on record: EAD peak size and shape (sharp/broad). The text has this:
In GC-EAD assays, the analyte is processed by gas chromatography (GC). The column effluent is split, such that molecules of each chromatographic peak arrive simultaneously at the flame ionization detector of the GC and at an anectomized but otherwise intact insect antenna as the biological detector. This procedure detects specific compounds in the analyte that elicit an electrical potential from the antenna.
For GC-EAD recordings, an antenna was carefully dislodged from a male moth's head, and the antennal base placed into the opening of a glass capillary electrode (0.58 mm ID×65 mm length) (A-M Systems, Inc., Carlsborg, Wash., USA) filled with saline solution. The tip of the antenna was removed by spring microscissors (Fine Science Tools Inc., North Vancouver, British Columbia, Canada) and then placed into the opening of the recording electrode mounted on a portable micromanipulator and positioned in front of a constant stream of warm air (Praxair Canada Inc., Mississauga, Ontario, Canada) which delivered the GC column eluent. […] Identical retention times of compounds detected by the flame ionization detector of the GC and by the insect antenna allowed assignment of antennal responses to specific compounds in the eluent.

Test [1] has as its system male gypsy moth antenna response to pheromone (+)-1. In words: EAG short-term (STI) and long-term (LTI) inhibition of pheromone signaling (Example 5). The arrangement: species or system Lymantria dispar. To be noted: for inhibition at 0.001 mg / inhibition at 0.01 mg / inhibition at 0.1 mg / inhibition at 100 µg, 0.1 mg: Lymantria dispar, mean ± S.E.; for inhibition at 0.001 mg: mixed plume (+)-1 100 ng + compound 1 μg; for inhibition at 0.001 mg / inhibition at 0.01 mg / inhibition at 0.1 mg: negative = enhancement, read-out: Activity (%): short-term inhibition (STI); for inhibition at 0.01 mg: mixed plume (+)-1 100 ng + compound 10 μg; for inhibition at 0.1 mg: mixed plume (+)-1 100 ng + compound 100 μg (puff v); for inhibition at 100 µg, 0.1 mg: pure (+)-1 100 ng plume following mixed plume with 100 μg compound, read-out: Activity (%): long-term inhibition (LTI). Here is the method: The puffs are numbered i-vi and were: i=air, ii=pure pheromone (+)-disparlure, (+)-1, (100 ng), iii-v=disparlure mixed with the test compound, the latter at three different doses, vi=pure (+)-1. Depolarizations from the resting potential are labeled d; hyperpolarizations seen during the recovery phase after a puff are labeled r. Subscripts refer to the puff number. FIG. 5A. Typical trace for compound 3c{2,3}. FIG. 5B. Typical trace for compound 3a{4,4}.
For other compounds, EAG traces were recorded as follows: a fully dislodged antenna from a male gypsy moth was mounted on the end of a reference electrode (a glass capillary with a silver wire, filled with buffered saline: 5 mM NaH2PO4, 10 mM Na2SO4, 4.5 mM KHCO3, 18 mM MgCl2, 4 mM CaCl2, 6 mM KCl, the pH is adjusted to 6.8 using 5 mM Na2HPO4). The tip of the antenna was severed with microscissors and placed in the recording electrode, which was mounted on a micromanipulator. A constant stream of air, that had been purified (charcoal filter), was blown over the antenna at a rate of 300 mL/min. Test samples were delivered through a stimulus delivery tube with a side opening 2 cm from the distal opening. The proximal end of the delivery tube was connected to a controlled stimulus delivery apparatus (Stimulus controller CS-05 Syntech Research and Equipment, NL 1200BM, Hilversum, The Netherlands). The distal end of the delivery tube pointed at the antenna (1 cm from the antenna). The side opening was connected to a cartridge fashioned from a Pasteur pipette which contained a small filter paper (Whatman No. 1) with the stimulus. These pipette cartridges could be prepared a few days in advance and stored at −80° C. wrapped in Al foil and in sealable plastic bags. Sample cartridges were mounted once they had reached room temperature. The stimulus delivery apparatus delivered a second stream of air (a puff) through the Pasteur pipette at a velocity of 600 mL/min, at a specified point in time, for 0.3 s. Receptor potentials of the antennae in response to test stimuli were recorded with a Syntech IDAC probe, amplifier and interfaced board, and were analyzed with EAG Syntech Software Version 2.4 (1996). See FIG. 4 for a representative EAG trace. The EAG traces were evaluated as follows (see FIG. 5).
The net depolarizations, d(net) (in mV), of puffs ii-vi,d(sample), (corrected for the depolarization with clean air, d(air)) d(net)=d(sample)−d(air) (Eq. 1)
The percentage short-term inhibition for each compound (STI(compound)) of puffs iii-v, relative to the first pure pheromone puff (ii) STI(compound)=100×(d(net)(ii)−d(net)(compound))/d(net)(ii) (Eq. 2)
c) the percentage long-term inhibition for each compound (LTI(compound)) of the pure pheromone puff that followed the last mixed puff (vi) relative to the first pure pheromone puff (ii) LTI(compound)=100×(d(net)(ii)−d(net)(vi))/d(net)(ii) (Eq. 3)
The compounds we tested gave weak or no olfactory responses by themselves in electroantennogram (EAG) experiments. The EAG trace reflects the change in the potential across the antenna when an air puff with an odorant is passed over the antenna. To understand the agonistic or antagonistic effect of the compounds on pheromone responses by male moth antennae, four types of EAG experiment were conducted. First, the response of the antenna elicited by a stimulus of pure (+)-1 was compared to the responses elicited by blends of (+)-1 with the test compound (FIG. 5). […] This effect was termed short-term inhibition (STI). […] Second, the time decay and dose responses for LTI activities were studied. Third, the strongest inhibitors were tested for their ability to cause LTI by themselves.
This experiment explored the agonistic or antagonistic activity of the synthetic aromatic compounds (Scheme 1 and eugenol and alkyl eugenols) with the gypsy moth pheromone (+)-1. […]

In general, inhibition refers to the change of the read-out against control, counted positive when it falls. Take `C=CCc1ccc(OCC)c(OC)c1` [Et eugenol]: the GC-EAD activity entry in the test on male gypsy moth antenna is given as “None”. In test [1], the inhibition at 0.001 mg stood at 3 ± 27%; the inhibition at 0.01 mg stood at 19 ± 18%; the inhibition at 0.1 mg was -121 ± 15%; the inhibition at 100 µg, 0.1 mg stood at 20 ± 3%.

For `COc1cccc(OC)c1` [3b{1,1}, 1,3-Dimethoxy benzene], in the test with male gypsy moth antenna, the GC-EAD activity result is recorded as “Trace”. In addition, in test [1], the inhibition at 0.001 mg amounted to 25 ± 18%; the inhibition at 0.01 mg was determined as 9 ± 40%; the inhibition at 0.1 mg came to 44 ± 36%; the inhibition at 100 µg, 0.1 mg was 1 ± 8%.

Regarding `C=CCOc1cccc(OCC=C)c1` [3b{6,6}, 1,3-Diallyloxy benzene], the GC-EAD activity entry in the test on male gypsy moth antenna was “None”. Besides, in test [1], the inhibition at 0.001 mg is 11 ± 18%; the inhibition at 0.01 mg turned out to be 10 ± 22%; the inhibition at 0.1 mg is -34 ± 41%; the inhibition at 100 µg, 0.1 mg is 33 ± 12%.

Consider `COc1cccc(O)c1` [2b{1}, 3-Methoxy phenol], for which, in the test with male gypsy moth antenna, the GC-EAD activity entry is listed as “None”. In test [1], the inhibition at 0.001 mg came out at 6 ± 11%; the inhibition at 0.01 mg is 14 ± 22%; the inhibition at 0.1 mg is 49 ± 8%; the inhibition at 100 µg, 0.1 mg was found to be 4 ± 7%.

On to `CC(C)CCOc1ccccc1OCCC(C)C` [3a{5,5}, 1,2-Di-(3-methyl-butyloxy) benzene], for which, in the test with male gypsy moth antenna, the GC-EAD activity result is on record as “None”. For the same compound, in test [1], the inhibition at 0.001 mg was -77 ± 58%; the inhibition at 0.01 mg is -55 ± 67%; the inhibition at 0.1 mg is -105 ± 81%; the inhibition at 100 µg, 0.1 mg was determined as 0%.

As to `CCCOc1ccccc1O` [2a{3}, 2-Propoxy phenol], the GC-EAD activity entry with male gypsy moth antenna was “None”. Also, in test [1], the inhibition at 0.001 mg is -26 ± 14%; the inhibition at 0.01 mg was determined as 32 ± 9%; the inhibition at 0.1 mg came out at 46 ± 13%; the inhibition at 100 µg, 0.1 mg came to 18 ± 5%.

For the compound `CCOc1cccc(O)c1` [2b{2}, 3-Ethoxy phenol], in the test on male gypsy moth antenna, the GC-EAD activity result is given as “None”. In test [1], the inhibition at 0.001 mg was 4 ± 20%; the inhibition at 0.01 mg worked out at 0%; the inhibition at 0.1 mg was found to be 44 ± 18%; the inhibition at 100 µg, 0.1 mg is -3 ± 5%.

For the compound `CCOc1ccccc1O` [2a{2}, 2-Ethoxy phenol], in the test on male gypsy moth antenna, the GC-EAD activity entry is reported as “None”. Further, in test [1], the inhibition at 0.001 mg worked out at 42 ± 12%; the inhibition at 0.01 mg came to 26 ± 12%; the inhibition at 0.1 mg stood at 58 ± 11%; the inhibition at 100 µg, 0.1 mg turned out to be 6 ± 4%.

For `C=CCOc1cccc(OC)c1` [3b{1,6}, 1-allyloxy-3-methoxybenzene], the GC-EAD activity result in the test with male gypsy moth antenna is listed as “None”. In test [1], the inhibition at 0.001 mg was -67 ± 61%; the inhibition at 0.01 mg was -107 ± 88%; the inhibition at 0.1 mg is -95 ± 106%; the inhibition at 100 µg, 0.1 mg was determined as 14 ± 13%.

As for `CCCCOc1ccccc1O` [2a{4}, 2-Butoxy phenol], the GC-EAD activity result with male gypsy moth antenna is “None”. Also, in test [1], the inhibition at 0.001 mg was determined as 26 ± 12%; the inhibition at 0.01 mg was determined as 21 ± 11%; the inhibition at 0.1 mg worked out at 50%; the inhibition at 100 µg, 0.1 mg amounted to 5 ± 6%.

`C=CCOc1ccc(OCCC)cc1` [3c{3,6}, 1-allyloxy-4-propoxybenzene]: in the test with male gypsy moth antenna, the GC-EAD activity result is “+ broad”. Also, in test [1], the inhibition at 0.001 mg was -57 ± 46%; the inhibition at 0.01 mg is -114 ± 51%; the inhibition at 0.1 mg was -168 ± 76%; the inhibition at 100 µg, 0.1 mg stood at 39 ± 15%.

Regarding `C=CCOc1cccc(OCCC(C)C)c1` [3b{5,6}, 1-allyloxy-3-isopentoxybenzene], in the test on male gypsy moth antenna, the GC-EAD activity entry is listed as “None”. Further, in test [1], the inhibition at 0.001 mg was -69 ± 34%; the inhibition at 0.01 mg was -85 ± 65%; the inhibition at 0.1 mg was -99 ± 88%; the inhibition at 100 µg, 0.1 mg worked out at 15 ± 8%.

Regarding `CCCCOc1cccc(O)c1` [2b{4}, 3-butoxyphenol], the GC-EAD activity result with male gypsy moth antenna is given as “None”. In addition, in test [1], the “short-term effect on antennal pheromone response (in words)” value is reported as “short-term enhancements”, the inhibition at 0.001 mg is -6 ± 18%, the inhibition at 0.01 mg is -20 ± 31% and the inhibition at 0.1 mg was -74 ± 71%. For the same compound, the inhibition at 100 µg, 0.1 mg in test [1] is -1 ± 15%.
